Measurements from patent US10499641B2 (priority 2010, dated 2019).

Test system: Phytophthora infestans
Assay type: in vivo
Conditions: young tomato plants, sprayed, active ingredient concentration 100 ppm, inoculated 1 day after treatment, evaluation 7 days after inoculation; 100% = no infection

Row | Compound | Eff. % [%]
1 | CC(C)ON=Cc1cccc(C2CC(c3csc(C4CCN(C(=O)Cn5nc(C(F)F)cc5C(F)F)CC4)n3)=NO2)c1 (mixture of isomers) [Example I-6] | 100
2 | Cc1cc(C(F)(F)F)nn1CC(=O)N1CCC(c2nc(C3=NOC(c4cccc(C=NOC(C)C)c4)C3)cs2)CC1 (mixture of isomers) [Example I-8] | 100
3 | CC(=NOC(C)C)c1cccc(C2CC(c3csc(C4CCN(C(=O)Cn5nc(C(F)(F)F)cc5C)CC4)n3)=NO2)c1 (mixture of isomers) [Example I-9] | 100
4 | CCON=Cc1cccc(C2CC(c3csc(C4CCN(C(=O)Nc5cc(Cl)ccc5C)CC4)n3)=NO2)c1 (mixture of isomers) [Example I-12] | 95
5 | CC(=NOC(C)C)c1cccc(C2CC(c3csc(C4CCN(C(=O)Cn5nc(C(F)F)cc5C(F)F)CC4)n3)=NO2)c1 (mixture of isomers) [Example I-20] | 100
6 | CCON=Cc1cccc(C2CC(c3csc(C4CCN(C(=O)Cn5nc(C(F)F)cc5C(F)F)CC4)n3)=NO2)c1 (mixture of isomers) [Example I-24] | 100
7 | CC(=NOC(C)C)c1ccccc1C1CC(c2csc(C3CCN(C(=O)Cn4nc(C(F)F)cc4C(F)F)CC3)n2)=NO1 (mixture of isomers) [Example I-28] | 100
8 | CC(=NOC(C)C)c1ccccc1C1CC(c2csc(C3CCN(C(=O)Cn4nc(C(F)(F)F)cc4C)CC3)n2)=NO1 (mixture of isomers) [Example I-30] | 100
9 | CCON=Cc1ccccc1C1CC(c2csc(C3CCN(C(=O)Nc4cc(Cl)ccc4C)CC3)n2)=NO1 (mixture of isomers) [Example I-33] | 100
10 | Cc1ccc(Cl)cc1NC(=O)N1CCC(c2nc(C3=NOC(c4ccccc4C=NOC(C)C)C3)cs2)CC1 (mixture of isomers) [Example I-37] | 100
11 | Cc1cc(C(F)(F)F)nn1CC(=O)N1CCC(c2nc(C3=NOC(c4ccccc4C=NOC(C)C)C3)cs2)CC1 (mixture of isomers) [Example I-39] | 100
12 | CC(C)ON=Cc1ccccc1C1CC(c2csc(C3CCN(C(=O)Cn4nc(C(F)F)cc4C(F)F)CC3)n2)=NO1 (mixture of isomers) [Example I-42] | 100
13 | CCON=Cc1cccc(C2CC(c3csc(C4CCN(C(=O)Cn5nc(C(F)(F)F)cc5C)CC4)n3)=NO2)c1 (stereo not shown) [Example I-11] | 100
14 | Cc1ccc(Cl)cc1NC(=O)N1CCC(c2nc(C3=NOC(c4cccc(C=NOC(C)C)c4)C3)cs2)CC1 (stereo not shown) [Example I-13] | 100
15 | CC1(c2ccccc2OS(C)(=O)=O)CC(c2csc(C3CCN(C(=O)Cn4nc(C(F)F)cc4C(F)F)CC3)n2)=NO1 (stereo not shown) [Example I-43] | 94
16 | Cc1cc(C(F)F)nn1CC(=O)N1CCC(c2nc(C3=NOC(C)(c4ccccc4OS(C)(=O)=O)C3)cs2)CC1 (stereo not shown) [Example I-44] | 94
17 | COCCS(=O)(=O)Cc1ccccc1C1CC(c2csc(C3CCN(C(=O)Cn4nc(C(F)(F)F)cc4C)CC3)n2)=NO1 (stereo not shown) [Example I-45] | 94
18 | Cc1ccc(S(=O)(=O)Oc2ccccc2C2(C)CC(c3csc(C4CCN(C(=O)Cn5nc(C(F)F)cc5C(F)F)CC4)n3)=NO2)cc1 (stereo not shown) [Example I-48] | 94
19 | Cc1ccc(S(=O)(=O)Oc2ccccc2C2(C)CC(c3csc(C4CCN(C(=O)Cn5nc(C(F)F)cc5C)CC4)n3)=NO2)cc1 (stereo not shown) [Example I-49] | 94
20 | CS(=O)(=O)Oc1ccc(F)c(C2CC(c3csc(C4CCN(C(=O)Cn5nc(C(F)F)cc5C(F)F)CC4)n3)=NO2)c1F (stereo not shown) [Example I-50] | 94
21 | Cc1cc(C(F)F)nn1CC(=O)N1CCC(c2nc(C3=NOC(c4ccccc4OS(C)(=O)=O)C3)cs2)CC1 (stereo not shown) [Example I-51] | 97
22 | Cc1ccc(C)c(NC(=O)N2CCC(c3nc(C4=NOC(c5c(Cl)cccc5OS(C)(=O)=O)C4)cs3)CC2)c1 (stereo not shown) [Example I-52] | 94

Row | Compound | Eff. % [%]
23 | COCC[S+]([O-])Cc1ccccc1C1CC(c2csc(C3CCN(C(=O)Cn4nc(C(F)F)cc4C(F)F)CC3)n2)=NO1 (stereo not shown) [Example I-56] | 94
24 | CS(=O)(=O)Oc1cc(Cl)ccc1C1CC(c2csc(C3CCN(C(=O)Cn4nc(C(F)F)cc4C(F)F)CC3)n2)=NO1 (stereo not shown) [Example I-70] | 97
25 | N#CCOc1cc(Cl)ccc1C1CC(c2csc(C3CCN(C(=O)Cn4nc(C(F)F)cc4C(F)F)CC3)n2)=NO1 (stereo not shown) [Example I-71] | 100
26 | C=CCOCc1ccccc1C1CC(c2csc(C3CCN(C(=O)Cn4nc(C(F)(F)F)cc4C)CC3)n2)=NO1 (stereo not shown) [Example I-93] | 95
27 | C=CCOCc1ccccc1C1CC(c2csc(C3CCN(C(=O)Cn4nc(C(F)F)cc4C(F)F)CC3)n2)=NO1 (stereo not shown) [Example I-94] | 100
28 | Cc1cc(C(F)(F)F)nn1CC(=O)N1CCC(c2nc(C3=NOC(c4cccc(OCC#N)c4)C3)cs2)CC1 (stereo not shown) [Example I-95] | 100
29 | Cc1cc(C(F)(F)F)nn1CC(=O)N1CCC(c2nc(C3=NOC(c4ccc(OS(C)(=O)=O)cc4)C3)cs2)CC1 (stereo not shown) [Example I-96] | 95
30 | CCS(=O)(=O)Oc1ccc(C2CC(c3csc(C4CCN(C(=O)Cn5nc(C(F)(F)F)cc5C)CC4)n3)=NO2)cc1 (stereo not shown) [Example I-97] | 95
31 | Cc1cc(C(F)(F)F)nn1CC(=O)N1CCC(c2nc(C3=NOC(c4ccc(OS(=O)(=O)C5CC5)cc4)C3)cs2)CC1 (stereo not shown) [Example I-98] | 95
32 | CCS(=O)(=O)Oc1cccc(C2CC(c3csc(C4CCN(C(=O)Cn5nc(C(F)(F)F)cc5C)CC4)n3)=NO2)c1 (stereo not shown) [Example I-99] | 100
33 | COCCSCc1ccccc1C1CC(c2csc(C3CCN(C(=O)Cn4nc(C(F)F)cc4C(F)F)CC3)n2)=NO1 (stereo not shown) [Example I-100] | 100
34 | Cc1cc(C(F)(F)F)nn1CC(=O)N1CCC(c2nc(C3=NOC(c4cccc(OS(=O)(=O)C5CC5)c4)C3)cs2)CC1 (stereo not shown) [Example I-101] | 100
35 | C=CC(=O)Oc1ccccc1C1CC(c2csc(C3CCN(C(=O)Cn4nc(C(F)(F)F)cc4C)CC3)n2)=NO1 (stereo not shown) [Example I-104] | 97
36 | O=C(Cn1nc(C(F)F)cc1C(F)F)N1CCC(c2nc(C3=NOC(c4ccccc4OC(=O)C4(Cl)CC4)C3)cs2)CC1 (stereo not shown) [Example I-107] | 100
37 | Cc1cc(C(F)(F)F)nn1CC(=O)N1CCC(c2nc(C3=NOC(c4ccccc4NC=O)C3)cs2)CC1 (stereo not shown) [Example I-109] | 100
38 | N#CCOc1cccc(C2CC(c3csc(C4CCN(C(=O)Cn5nc(C(F)F)cc5C(F)F)CC4)n3)=NO2)c1 (stereo not shown) [Example I-110] | 100
39 | Cc1cc(C(F)(F)F)nn1CC(=O)N1CCC(c2nc(C3=NOC(c4cccc(F)c4OCC#N)C3)cs2)CC1 (stereo not shown) [Example I-111] | 98
40 | O=C(O)c1ccccc1C1CC(c2csc(C3CCN(C(=O)Cn4nc(C(F)F)cc4C(F)F)CC3)n2)=NO1 (stereo not shown) [Example I-134] | 93
41 | CCNC(=O)Oc1ccccc1C1CC(c2csc(C3CCN(C(=O)Cn4nc(C(F)F)cc4C(F)F)CC3)n2)=NO1 (stereo not shown) [Example I-136] | 93
42 | O=C(Cn1nc(C(F)F)cc1C(F)F)N1CCC(c2nc(C3=NOC(c4cccc(OCC#Cc5cccc6ccccc56)c4)C3)cs2)CC1 (stereo not shown) [Example I-137] | 100
43 | C=CCOCc1ccccc1C1CC(c2csc(C3CCN(C(=O)Cn4nc(C(F)F)cc4C(F)F)CC3)n2)=NO1 (stereo not shown) [Example I-139] | 80
